# Reference: US12133541B2, “Feed composition comprising hexahydro-β-acid component compounds and application thereof” (WISORIG TECHNOLOGIES PTE. LIMITED, priority 2019, dated 2024)
# Entries after “also recorded” stand apart in the source; their conditions may differ. Where two headings read alike, the source gives them in different places.
# How the values were obtained:
# [1] = Breeding experiment: production performance of hogs; format: in vivo, Duroc×Landrace×Yorkshire cross-bred bacon-type piglets; settings: for ADFI (g/d per piglet) / ADG (g/d per piglet) / FCR: basal ration with 25 ppm of active ingredient; for ADFI (g/d per piglet) / ADG (g/d per piglet) / FCR / animal production performance compared with the hexahydro-β-acids (in words) / change rate of feed intake compared with the control group / change rate of weight gain compared with the control group / decrease rate of feed conversion ratio compared with the control group: 14 days; for ADFI (g/d per piglet) / ADG (g/d per piglet): 67-day-old piglets; for FCR: feed intake/weight gain; for animal production performance compared with the hexahydro-β-acids (in words) / change rate of feed intake compared with the control group / change rate of weight gain compared with the control group / decrease rate of feed conversion ratio compared with the control group / average daily weight gain vs control (in words): piglets; for animal production performance compared with the hexahydro-β-acids (in words) / change rate of feed intake compared with the control group / change rate of weight gain compared with the control group / decrease rate of feed conversion ratio compared with the control group: 25 ppm; for average daily weight gain vs control (in words): difference above 5% deemed obvious
# Excerpt: 240 67-day-old Duroc×Landrace×Yorkshire cross-bred bacon-type piglets with similar body weight, were randomly divided into 8 groups, with 3 replications per group, 10 piglets per replication and equal amount of males and females. The pig pen and tools were sterilized before the experiment. During the experiment, the piglets were kept in separate regions in the same pig pen under the same feeding and management conditions. The piglets were given ad libitum access to food and water, and feeds were provided twice every day. The groups were control group (group 1) and test groups 2 to 8, wherein piglets of the control group were given basal ration only, those of the test groups 2 to 8 were respectively given basal ration in combination with different additives with 25 ppm of active ingredient thereof, wherein the active ingredient was hexahydro-β-acids, or the hexahydro-β-acid compounds, or the coated substances of the hexahydro-β-acid compounds, as shown in Table 3.
# During the entire process, each test group was not given other antioxidants or growth promoters. The experiment lasted for 14 days. On the 14th day, after withdrawing feed (without withdrawing water) for 12 hours, taking each replicate as one unit, the weight of each replication piglets was measured and each of average daily feed intake (ADFI, g/d per piglet), average daily weigh gain (ADG, g/d per piglet), and feed conversion ratio (FCR) was calculated. Average daily feed intake=(Total weight of provided feed−Weight of remaining feed)/(Number of days×Amount of piglets in each replicate) Average daily weight gain=(final average body weight−initial average body weight)/number of test days Feed conversion ratio=average daily feed intake/average daily weight gain
# [2] = Thermal stability testing at 60° C. (HPLC); settings: for Concentration (%) Day 5 / Concentration (%) Day 10: day 0 = 100%; for degradation ratio: 10-day testing period
# Method: (§1) 50 mg of standard substance was accurately weighed out and dissolved in an appropriate amount of methanol by ultrasonication. The solution was then transferred to a 50 mL volumetric flask and diluted to volume with methanol to give a stock solution. Working solutions with concentration as 25 ppm, 125 ppm, 250 ppm, 500 ppm, and 1000 ppm were prepared respectively by the dilution of appropriate amount of the stock solution.
# (§2) • Column: Symmetry C18 column (Waters; 250 mm*4.6 mm, 5 μm) • Mobile phase: 0.02% phosphoric acid:methanol=5:95 (v:v) • Wavelength: 223 nm • Column temperature: 25° C. • Injection volume: 10 μL • Flow rate: 1 mL/min
# (§3) Thermal stability testing: The test samples were spread in petri dishes to form thin layers of ≤5 mm and placed in a drug stability testing chambers at 60° C. Samples were taken with 3 replications in parallel for each of test samples on day 5 and day 10 for HPLC analysis.
# [3] = Breeding experiment: production performance of broilers; format: in vivo, yellow broilers; settings: 30 days; for ADFI (g/d per broiler) / ADG (g/d per broiler) / FCR: basal ration with 25 ppm of active ingredient; for ADFI (g/d per broiler) / ADG (g/d per broiler): 1-day-old yellow broilers; for FCR: feed intake/weight gain
# Method: The experiment was conducted with single-factor randomized design. 720 1-day-old yellow broilers with a similar average body weight of 50 g, were randomly divided into 8 groups, with 6 replicates per group, equal amount of males and females and 15 yellow broilers per replicate. The chicken house and tools were sterilized before the experiment. During the experiment, the broilers were kept in separate regions in the same chicken house under the same feeding and management conditions. Basal ration mainly consisted of corn and soybean meal. During the entire process, each group was not given other antioxidants or growth promoters. The groups were control group (group 1) and test groups 2 to 8, wherein the control group was given basal ration only, while the test groups 2 to 8 were respectively given basal ration in combination with the different additives with 25 ppm of the active ingredient thereof, wherein the active ingredient was hexahydro-β-acids, or the hexahydro-β-acid compounds, or the coated substances of the hexahydro-β-acid compounds as shown in Table 4.
# The experiment lasted for 30 days. The broilers were given ad libitum access to food and water, and feeds were provided twice every day. At the day when the broilers were 31-day old (after withdrawing feed for 12 hours, without withdrawing water), taking each replicate as one unit, body weight of the broilers was measured, and each of average daily feed intake (ADFI, g/d per broiler), average daily weigh gain (ADG, g/d per broiler), and feed conversion ratio (FCR) was calculated. Feed conversion ratio (FCR)=average daily feed intake/average daily weight gain
# [4] = Stability testing at ambient temperature of feeds (HPLC); format: physicochemical; settings: for Concentration (%) Day 5 / Concentration (%) Day 10: room temperature, day 0 = 100%
# Excerpt: Stability testing at ambient temperature: The samples were placed in a room-temperature environment. Samples were taken on day 5 and day 10 for HPLC analysis, and three replications were taken in parallel for each test sample.
# [5] = 10 day, 1 wt %
# Method: as §1, §2, §3
# [6] = 1% premix of hexahydro-β-acid compound
# [7] = component within 1% premix of hexahydro-β-acids
# [8] = component within hexahydro-β-acids
# [9] = hexahydro-β-acid compound (free or coated substance)
# [10] = component within feed comprising 25 ppm of hexahydro-β-acids
# [11] = feed comprising 25 ppm of hexahydro-β-acid compound
"Concentration (%) Day 5 [2, 6] [%]","Concentration (%) Day 10 [2, 6] [%]","Concentration (%) Day 5 [2, 7] [%]","Concentration (%) Day 10 [2, 7] [%]","Concentration (%) Day 5 [2, 8] [%]","Concentration (%) Day 10 [2, 8] [%]","Concentration (%) Day 5 [2, 9] [%]","Concentration (%) Day 10 [2, 9] [%]",Molecule,ADFI (g/d per piglet) [1] [g/d per piglet],ADG (g/d per piglet) [1] [g/d per piglet],FCR [1],change rate of feed intake compared with the control group [1] [%],change rate of weight gain compared with the control group [1] [%],decrease rate of feed conversion ratio compared with the control group [1] [%],ADFI (g/d per broiler) [3] [g/d per broiler],ADG (g/d per broiler) [3] [g/d per broiler],FCR [3],"change rate of feed intake compared with the control group ([3]; broilers, 25 ppm) [%]","change rate of weight gain compared with the control group ([3]; broilers, 25 ppm) [%]","decrease rate of feed conversion ratio compared with the control group ([3]; broilers, 25 ppm) [%]",also measured
99.39,97.39,97.02,97.56,96.48,90.43,99.76,99.10,"CC(C)CCC1=C(O)C(C(=O)C(C)C)=C(O)C(CCC(C)C)(CCC(C)C)C1=O [Hexahydro-colupulone, hexahydro-colupulone]",894,403,2.218,2.40,12.57,8.99,49.68,25.19,1.97,0.26,8.86,7.94,"animal production performance compared with the hexahydro-β-acids (in words) [1]: improve the animal production performance effectively; average daily weight gain vs control (in words) [1]: obvious increase; decrease in the concentration ([2]; day 10, component within 1% premix of hexahydro-β-acids): about 2.4%; decrease in the concentration ([2]; day 10, component within hexahydro-β-acids): about 10%; stability in feeds (in words) ([4]; ambient temperature): excellent short-term stability; also recorded: favourable stability; Concentration (%) Day 5 [4, 10]: 53.88%; Concentration (%) Day 10 [4, 10]: 37.69%; degradation ratio [5]: 2.6%"
97.24,95.68,88.97,88.63,91.48,82.87,98.01,96.63,hexahydro-adlupulone,860,368,2.340,1.49,2.79,3.98,50.06,24.59,2.04,1.03,6.27,4.67,"animal production performance compared with the hexahydro-β-acids (in words) [1]: improve the animal production performance effectively; average daily weight gain vs control (in words) [1]: obvious increase; degradation ratio ([2]; 1% premix of the compound): 4.3%; decrease in feed conversion ratio / feed efficiency (in words) ([3]; broilers, 25 ppm): more effective than hexahydro-β-acids; stability in feeds (in words) ([4]; ambient temperature): excellent short-term stability; also recorded: favourable stability; Concentration (%) Day 5 [4, 10]: 60.55%; Concentration (%) Day 10 [4, 10]: 0%"
92.37,91.21,89.92,87.62,91.97,79.62,99.10,92.85,hexahydro-lupulone [reference compound],864,358,2.413,−1.03,0,0.98,49.13,23.58,2.08,−0.85,1.90,2.80,"degradation ratio ([2]; 1% premix of the compound): 8.8%; degradation ratio ([2]; compound or coated substance): 7.2%; decrease of active compound in feed ([4]; ambient temperature, 10-day period, feed with 25 ppm): 95%; stability in feeds (in words) ([4]; ambient temperature): very poor stability in feeds; Concentration (%) Day 5 [4, 10]: 63.08%; Concentration (%) Day 10 [4, 10]: 0%; Concentration (%) Day 5 [4, 11]: 17.78%; Concentration (%) Day 10 [4, 11]: 4.96%"
